Laboratory results published in US20230085307A1, “PYRIDAZINONE COMPOUND AND HERBICIDE” (NISSAN CHEMICAL CORPORATION, priority 2019, published 2023).

How the values were obtained:
lambsquarters [1] = experiment: Test Example 4: herbicidal effect by soil treatment (Table 19, symbol O); format: in vivo, lambsquarters (Chenopodium album); settings: for herbicidal effect on O: lambsquarters: amount of applied herbicide 320 g/ha
Method in brief: (§1)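 Herbicidal effect was rated 3 weeks after treatment, using the scoring criteria of an earlier test. The compound, formulated as an emulsion and diluted in water to a set herbicide amount, had been sprayed uniformly on soil over freshly sown seeds. Growth took place in a greenhouse at 25° C. to 30° C.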

lambsquarters [2] = experiment: Test Example 5: herbicidal effect by foliage application, plastic box (Table 20, symbol O); format: in vivo, lambsquarters (Chenopodium album); settings: foliage application; for O: lambsquarters, herbicidal effect (criteria 0-5): AAH 320 g/ha, evaluated three weeks after application; for O: lambsquarters, herbicidal effect grade: three weeks after application
Method in brief: (§2)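 Foliar spray test: emulsion formulation diluted in water to a set application rate, sprayed onto 14-day-old plants raised in diluvial soil at 25° C to 30° C under glass. Both herbicidal effect and crop effect rated visually three weeks later.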

late watergrass = experiment: Test Example 1: herbicidal activity, application before weed generation under submerged conditions (Table 16, symbol A); format: in vivo, late watergrass (Echinochloa oryzicola); settings: for Herbicidal effect on A: late watergrass (grade 0-5): 320 g/ha applied herbicide
Method in brief: (§3)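 Alluvial soil was flooded to 4 cm depth, weed seeds were sown mixed and 2.5-leaf rice seedlings were transplanted. On sowing day, the compound's emulsion, diluted in water to a set dose, was applied to the water surface. Plants grew at 25–30 °C and were scored 0–5 after three weeks.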

southern crabgrass [3] = experiment: Test Example 5: herbicidal effect by foliage application, plastic box (Table 20, symbol F); format: in vivo, southern crabgrass (Digitaria ciliaris); settings: foliage application; for F: southern crabgrass, herbicidal effect (criteria 0-5): AAH 320 g/ha, evaluated three weeks after application; for F: southern crabgrass, herbicidal effect grade: three weeks after application
Method in brief: as §2

southern crabgrass [4] = experiment: Test Example 4: herbicidal effect by soil treatment (Table 19, symbol F); format: in vivo, southern crabgrass (Digitaria ciliaris); settings: for herbicidal effect on F: southern crabgrass: amount of applied herbicide 320 g/ha
Method in brief: as §1

barnyard grass [5] = experiment: Test Example 3: herbicidal effect by foliage application, Wagner pot (Table 18, symbol H); format: in vivo, barnyard grass (Echinochloa crus-galli); settings: for herbicidal effect on H: barnyard grass: amount of applied herbicide 320 g/ha
Method in brief: (§4)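 Plants were sown in alluvial soil held under 0.1–0.5 cm standing water and grown 14 days in a greenhouse at 25–30 °C. An emulsifiable formulation, water-diluted to the set dose, was then sprayed onto the foliage, and effects were scored three weeks later using previously defined criteria.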

Italian ryegrass = experiment: Test Example 5: herbicidal effect by foliage application, plastic box (Table 20, symbol K); format: in vivo, Italian ryegrass (Lolium multiflorum); settings: foliage application; for K: Italian ryegrass, herbicidal effect (criteria 0-5): AAH 320 g/ha, evaluated three weeks after application; for K: Italian ryegrass, herbicidal effect grade: three weeks after application
Method in brief: as §2

velvetleaf [6] = experiment: Test Example 5: herbicidal effect by foliage application, plastic box (Table 20, symbol M); format: in vivo, velvetleaf (Abutilon theophrasti); settings: foliage application; for M: velvetleaf, herbicidal effect (criteria 0-5): AAH 320 g/ha, evaluated three weeks after application; for M: velvetleaf, herbicidal effect grade: three weeks after application
Method in brief: as §2

velvetleaf [7] = experiment: Test Example 4: herbicidal effect by soil treatment (Table 19, symbol M); format: in vivo, velvetleaf (Abutilon theophrasti); settings: for herbicidal effect on M: velvetleaf: amount of applied herbicide 320 g/ha
Method in brief: as §1

windgrass [8] = experiment: Test Example 5: herbicidal effect by foliage application, plastic box (Table 20, symbol L); format: in vivo, windgrass (Apera spica-venti); settings: foliage application; for L: windgrass, herbicidal effect (criteria 0-5): AAH 320 g/ha, evaluated three weeks after application; for L: windgrass, herbicidal effect grade: three weeks after application
Method in brief: as §2

Japanese bulrush [9] = experiment: Test Example 1: herbicidal activity, application before weed generation under submerged conditions (Table 16, symbol B); format: in vivo, Japanese bulrush (Schoenoplectus juncoides); settings: for Herbicidal effect on B: Japanese bulrush (grade 0-5): 320 g/ha applied herbicide
Method in brief: as §3

Chinese sprangletop = experiment: Test Example 3: herbicidal effect by foliage application, Wagner pot (Table 18, symbol D); format: in vivo, chinese sprangletop (Leptochloa chinensis); settings: for herbicidal effect on D: Chinese sprangletop: amount of applied herbicide 320 g/ha
Method in brief: as §4

Japanese bulrush [10] = experiment: Test Example 2: herbicidal activity, application during weed generation under submerged conditions (Table 17, symbol B); format: in vivo, Japanese bulrush (Schoenoplectus juncoides); settings: application during weed generation, submerged conditions
Method in brief: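 Steps: fill Wagner pots with alluvial soil; add water to give 4 cm depth; sow the species mixed; grow under glass at 25–30° C.; at 1–2 leaves apply water-diluted emulsion formulation to the water surface at a fixed herbicide amount; score after 3 weeks.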

windgrass [11] = experiment: Test Example 4: herbicidal effect by soil treatment (Table 19, symbol L); format: in vivo, windgrass (Apera spica-venti); settings: for herbicidal effect on L: windgrass: amount of applied herbicide 320 g/ha
Method in brief: as §1

persian speedwell = experiment: Test Example 5: herbicidal effect by foliage application, plastic box (Table 20, symbol R); format: in vivo, Persian speedwell (Veronica persica); settings: foliage application; for R: persian speedwell, herbicidal effect (criteria 0-5): AAH 320 g/ha, evaluated three weeks after application; for R: persian speedwell, herbicidal effect grade: three weeks after application
Method in brief: as §2

wild oat = experiment: Test Example 5: herbicidal effect by foliage application, plastic box (Table 20, symbol I); format: in vivo, wild oat (Avena fatua); settings: foliage application; for I: wild oat, herbicidal effect (criteria 0-5): AAH 320 g/ha, evaluated three weeks after application; for I: wild oat, herbicidal effect grade: three weeks after application
Method in brief: as §2

barnyard grass [12] = experiment: Test Example 4: herbicidal effect by soil treatment (Table 19, symbol H); format: in vivo, barnyard grass (Echinochloa crus-galli); settings: for herbicidal effect on H: barnyard grass: amount of applied herbicide 320 g/ha
Method in brief: as §1

[13] = amount of applied herbicide 274 g/ha
[14] = amount of applied herbicide 80 g/ha

Row | SMILES | herbicidal effect on O: lambsquarters (lambsquarters [1]) | O: lambsquarters, herbicidal effect (criteria 0-5) (lambsquarters [2]) | Herbicidal effect on A: late watergrass (grade 0-5) (late watergrass) | F: southern crabgrass, herbicidal effect (criteria 0-5) (southern crabgrass [3]) | herbicidal effect on F: southern crabgrass (southern crabgrass [4]) | herbicidal effect on H: barnyard grass (barnyard grass [5]) | K: Italian ryegrass, herbicidal effect (criteria 0-5) (Italian ryegrass) | M: velvetleaf, herbicidal effect (criteria 0-5) (velvetleaf [6]) | herbicidal effect on M: velvetleaf (velvetleaf [7]) | L: windgrass, herbicidal effect (criteria 0-5) (windgrass [8]) | Herbicidal effect on B: Japanese bulrush (grade 0-5) (Japanese bulrush [9]) | herbicidal effect on D: Chinese sprangletop (Chinese sprangletop) | herbicidal effect rating, B: Japanese bulrush (Japanese bulrush [10]; AAH 320 g/ha) | herbicidal effect on L: windgrass (windgrass [11]) | R: persian speedwell, herbicidal effect (criteria 0-5) (persian speedwell) | I: wild oat, herbicidal effect (criteria 0-5) (wild oat) | herbicidal effect on H: barnyard grass (barnyard grass [12]) | other results
1 | CCCC(=O)Oc1c(C)nn(C)c(=O)c1-c1c(-c2ccc(F)c(F)c2)sc2ccc(F)cc12 [2-345] | 4 (Herbicidal rate of 70% or more and less than 90%) | 5 (Herbicidal rate of 90% or more (almost completely withered)) | 4 (Herbicidal rate of 70% or more and less than 90%) | 4 (Herbicidal rate of 70% or more and less than 90%) | 3 (Herbicidal rate of 40% or more and less than 70%) | 5 (Herbicidal rate of 90% or more (almost completely withered)) | 3 (Herbicidal rate of 40% or more and less than 70%) | 5 (Herbicidal rate of 90% or more (almost completely withered)) | 3 (Herbicidal rate of 40% or more and less than 70%) | 1 (Herbicidal rate of 5% or more and less than 20%) | 4 (Herbicidal rate of 70% or more and less than 90%) | 5 (Herbicidal rate of 90% or more (almost completely withered)) | 5 (Herbicidal rate of 90% or more (almost completely withered)) | 0 (Herbicidal rate of 5% or less (almost no effect)) | 5 (Herbicidal rate of 90% or more (almost completely withered)) | 3 (Herbicidal rate of 40% or more and less than 70%) | 4 (Herbicidal rate of 70% or more and less than 90%) | –
2 | Cc1nn(C)c(=O)c(-c2c(-c3ccc(Cl)cc3F)sc3ccc(F)cc23)c1O [2-348] | 5 (Herbicidal rate of 90% or more (almost completely withered)) | 5 (Herbicidal rate of 90% or more (almost completely withered)) | 2 (Herbicidal rate of 20% or more and less than 40%) | 5 (Herbicidal rate of 90% or more (almost completely withered)) | 1 (Herbicidal rate of 5% or more and less than 20%) | 5 (Herbicidal rate of 90% or more (almost completely withered)) | 4 (Herbicidal rate of 70% or more and less than 90%) | 5 (Herbicidal rate of 90% or more (almost completely withered)) | 1 (Herbicidal rate of 5% or more and less than 20%) | 5 (Herbicidal rate of 90% or more (almost completely withered)) | 3 (Herbicidal rate of 40% or more and less than 70%) | 5 (Herbicidal rate of 90% or more (almost completely withered)) | 2 (Herbicidal rate of 20% or more and less than 40%) | 0 (Herbicidal rate of 5% or less (almost no effect)) | 5 (Herbicidal rate of 90% or more (almost completely withered)) | 5 (Herbicidal rate of 90% or more (almost completely withered)) | 3 (Herbicidal rate of 40% or more and less than 70%) | –
3 | COc1ccccc1-c1sc2cc(C)ccc2c1-c1c(O)c(C)nn(C)c1=O [3-049] | – | – | – | – | – | – | – | – | – | – | – | – | – | – | – | – | – | O: lambsquarters, herbicidal effect grade (lambsquarters [1]; [13]): 4 (Herbicidal rate of 70% or more and less than 90%); O: lambsquarters, herbicidal effect grade (lambsquarters [2]; 274 g/ha): 4 (Herbicidal rate of 70% or more and less than 90%); Herbicidal effect, A: late watergrass (late watergrass; [13]): 5 (Herbicidal rate of 90% or more (almost completely withered)); F: southern crabgrass, herbicidal effect grade (southern crabgrass [3]; 274 g/ha): 5 (Herbicidal rate of 90% or more (almost completely withered)); F: southern crabgrass, herbicidal effect grade (southern crabgrass [4]; [13]): 3 (Herbicidal rate of 40% or more and less than 70%); herbicidal effect on barnyard grass (H) (barnyard grass [5]; 274 g/ha): 5 (Herbicidal rate of 90% or more (almost completely withered)); K: Italian ryegrass, herbicidal effect grade (Italian ryegrass; 274 g/ha): 5 (Herbicidal rate of 90% or more (almost completely withered)); M: velvetleaf, herbicidal effect grade (velvetleaf [6]; 274 g/ha): 5 (Herbicidal rate of 90% or more (almost completely withered)); M: velvetleaf, herbicidal effect grade (velvetleaf [7]; [13]): 0 (Herbicidal rate of 5% or less (almost no effect)); L: windgrass, herbicidal effect grade (windgrass [8]; 274 g/ha): 5 (Herbicidal rate of 90% or more (almost completely withered)); Herbicidal effect, B: Japanese bulrush (Japanese bulrush [9]; [13]): 3 (Herbicidal rate of 40% or more and less than 70%); herbicidal effect on Chinese sprangletop (D) (Chinese sprangletop; 274 g/ha): 5 (Herbicidal rate of 90% or more (almost completely withered)); herbicidal effect rating, B: Japanese bulrush (Japanese bulrush [10]; AAH 274 g/ha): 3 (Herbicidal rate of 40% or more and less than 70%); L: windgrass, herbicidal effect grade (windgrass [11]; [13]): 5 (Herbicidal rate of 90% or more (almost completely withered)); R: persian speedwell, herbicidal effect grade (persian speedwell; 274 g/ha): 5 (Herbicidal rate of 90% or more (almost completely withered)); I: wild oat, herbicidal effect grade (wild oat; 274 g/ha): 5 (Herbicidal rate of 90% or more (almost completely withered)); H: barnyard grass, herbicidal effect grade (barnyard grass [12]; [13]): 3 (Herbicidal rate of 40% or more and less than 70%)
4 | CCOc1ccccc1-c1sc2cc(OC)ccc2c1-c1c(O)c(C)nn(C)c1=O [3-070] | – | – | – | – | – | – | – | – | – | – | – | – | – | – | – | – | – | O: lambsquarters, herbicidal effect grade (lambsquarters [1]; [14]): 0 (Herbicidal rate of 5% or less (almost no effect)); O: lambsquarters, herbicidal effect grade (lambsquarters [2]; 80 g/ha): 5 (Herbicidal rate of 90% or more (almost completely withered)); Herbicidal effect, A: late watergrass (late watergrass; [14]): 5 (Herbicidal rate of 90% or more (almost completely withered)); F: southern crabgrass, herbicidal effect grade (southern crabgrass [3]; 80 g/ha): 5 (Herbicidal rate of 90% or more (almost completely withered)); F: southern crabgrass, herbicidal effect grade (southern crabgrass [4]; [14]): 4 (Herbicidal rate of 70% or more and less than 90%); herbicidal effect on barnyard grass (H) (barnyard grass [5]; 80 g/ha): 5 (Herbicidal rate of 90% or more (almost completely withered)); K: Italian ryegrass, herbicidal effect grade (Italian ryegrass; 80 g/ha): 4 (Herbicidal rate of 70% or more and less than 90%); M: velvetleaf, herbicidal effect grade (velvetleaf [6]; 80 g/ha): 5 (Herbicidal rate of 90% or more (almost completely withered)); M: velvetleaf, herbicidal effect grade (velvetleaf [7]; [14]): 0 (Herbicidal rate of 5% or less (almost no effect)); L: windgrass, herbicidal effect grade (windgrass [8]; 80 g/ha): 5 (Herbicidal rate of 90% or more (almost completely withered)); Herbicidal effect, B: Japanese bulrush (Japanese bulrush [9]; [14]): 5 (Herbicidal rate of 90% or more (almost completely withered)); herbicidal effect on Chinese sprangletop (D) (Chinese sprangletop; 80 g/ha): 5 (Herbicidal rate of 90% or more (almost completely withered)); herbicidal effect rating, B: Japanese bulrush (Japanese bulrush [10]; AAH 80 g/ha): 5 (Herbicidal rate of 90% or more (almost completely withered)); L: windgrass, herbicidal effect grade (windgrass [11]; [14]): 0 (Herbicidal rate of 5% or less (almost no effect)); R: persian speedwell, herbicidal effect grade (persian speedwell; 80 g/ha): 5 (Herbicidal rate of 90% or more (almost completely withered)); I: wild oat, herbicidal effect grade (wild oat; 80 g/ha): 5 (Herbicidal rate of 90% or more (almost completely withered)); H: barnyard grass, herbicidal effect grade (barnyard grass [12]; [14]): 0 (Herbicidal rate of 5% or less (almost no effect))
